Data as given in ChEMBL document CHEMBL5385879, “Various strategies for developing APOBEC3G protectors to circumvent human immunodeficiency virus type 1” (Eur J Med Chem, 2023).
Active and inactive are the calls of the source. The rule behind the calls is not given here.

How the values were obtained:
[1] = biological target: Virion infectivity factor (Human immunodeficiency virus type 1 group M subtype B (isolate NY5)(HIV-1), UniProt P12504); assay: Inhibition of HIV1 Vif; set-up: species or system Human immunodeficiency virus 1
[2] = system: Human immunodeficiency virus 1; assay: Antiviral activity against HIV1 infected in H9 cells assessed as reduction in viral replication measured after 4 days post infection; format: functional, organism-based; conditions: Human immunodeficiency virus 1, H9, 96 h
[3] = system: Human immunodeficiency virus 1; assay: Antiviral activity against HIV1 infected in HEK293T cells cotransfected with pNL4-3 plus A3G vector assessed as reduction in viral replication measured after 48 hrs post transfection by MAGI assay; format: functional, organism-based; conditions: Human immunodeficiency virus 1, HEK-293T
Hepatitis B virus [4] = assay: Antiviral activity against wild type HBV infected in HepG2.2.15 cells assessed as reduction in viral replication; format: functional, organism-based
Hepatitis B virus [5] = assay: Antiviral activity against HBV infected in ETV/3TC-resistant HepG2.A64 cells assessed as reduction in viral replication; format: functional, organism-based
[6] = Inhibition of HIV1 Vif to human A3G protein-protein interaction
[7] = system: Human immunodeficiency virus 2; assay: Antiviral activity against HIV2 infected in PBMCs assessed as reduction in viral replication measured after 7 days by ELISA; format: functional, organism-based; conditions: Human immunodeficiency virus 2, PBMC, 168 h
[8] = system: Human immunodeficiency virus 1; assay: Antiviral activity against HIV1 infected in PBMCs assessed as reduction in viral replication measured after 7 days by ELISA; format: functional, organism-based; conditions: Human immunodeficiency virus 1, PBMC, 168 h
[9] = system: Human immunodeficiency virus 1; assay: Antiviral activity against HIV1 infected in C8166 cells assessed as reduction in viral replication measured after 3 days by ELISA; format: functional, organism-based; conditions: Human immunodeficiency virus 1, C8166, 72 h
[10] = system: Human immunodeficiency virus 2; assay: Antiviral activity against HIV2 infected in C8166 cells assessed as reduction in viral replication measured after 3 days by ELISA; format: functional, organism-based; conditions: Human immunodeficiency virus 2, C8166, 72 h
[11] = system: Human immunodeficiency virus 1; assay: Antiviral activity against HIV-1 Bal infected in PBMCs; format: functional, organism-based; conditions: Human immunodeficiency virus 1, Bal, PBMC
[12] = Cytotoxicity against human PBMCs; format: toxicity, cell-based, PBMC; conditions: read-out: TC50 (the source's name)
[13] = Inhibition of HIV1 GST-tagged Vif (1 to 94 residues) to biotinylated-A3G (110 to 148 residues) (unknown origin) protein-protein interaction by TR-FRET assay
[14] = system: Human immunodeficiency virus 1; assay: Antiviral activity against HIV1 Bal infected in PBMCs assessed as reduction in viral replication measured after 7 days post infection; format: functional, organism-based; conditions: Human immunodeficiency virus 1, Bal, PBMC, 168 h
HEK293T = assay: Inhibition of HIV1 Vif expressed in HEK293T cells to cul5 (unknown origin) protein-protein interaction; format: cell-based
[15] = system: Human immunodeficiency virus 1; assay: Antiviral activity against HIV1 infected in CEM cells assessed as reduction in viral replication measured on day 7 postinfection by ELISA; format: functional, organism-based; conditions: Human immunodeficiency virus 1, CCRF-CEM, 168 h
[16] = Cytotoxicity against HEK293T cells; format: toxicity, cell-based, HEK-293T; conditions: human
[17] = system: Human immunodeficiency virus 1; assay: Antiviral activity against HIV-1 NL4-3 infected in HEK293T cells cotransfected with Vif and hA3G-HA assessed as fold increase in A3G-HA level at 10 uM measured after 36 hrs by Western blotting analysis; format: functional
[18] = system: Human immunodeficiency virus 1; assay: Antiviral activity against HIV-1 NL4-3 infected in HEK293T cells cotransfected with VSVG and hA3G-HA assessed as reduction in viral replication preincubated for 36 hrs followed by SubT1 cells infection for 48 hrs by luciferase based assay; format: functional, organism-based; conditions: Human immunodeficiency virus 1, NL4-3, HEK-293T

Chain of Virion infectivity factor (P12504 1-150 limits assumed): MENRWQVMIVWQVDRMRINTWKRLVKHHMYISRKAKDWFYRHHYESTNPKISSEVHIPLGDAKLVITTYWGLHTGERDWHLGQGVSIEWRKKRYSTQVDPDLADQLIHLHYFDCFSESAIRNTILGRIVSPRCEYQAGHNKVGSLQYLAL
Chain of Virion infectivity factor (P12504 151-192 limits assumed): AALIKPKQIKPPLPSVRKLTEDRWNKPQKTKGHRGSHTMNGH

COc1ccccc1NC(=O)c1ccccc1Sc1ccc([N+](=O)[O-])cc1
IC50 [1]: 6000 nM

N#C/C(=C\c1ccc(Br)nc1)c1nc2ccccc2[nH]1
IC50 [2]: 1010 nM

CCOC(=O)c1cc(C(=O)c2ccc3ccccc3c2)n2ccc(C(=O)c3ccccc3)cc12
IC50 [3]: 25000 nM

CNc1cc(C(=O)Nc2ccc(Cl)cc2)ccc1OC
IC50 (Hepatitis B virus [4]): 1990 nM | IC50 (Hepatitis B virus [5]): 3300 nM

COc1ccc(C(=O)Nc2cc(OC)c(OC)c(OC)c2)cc1NC(=O)C(C)Br (stereo not drawn)
IC50 [6]: 17 nM

CCCCCCCCCCCCCCCCCCCCCCC(=O)O[C@@H]1[C@@H](C)[C@@]2(O)[C@@H](C=C(COC(C)=O)C[C@]3(O)C(=O)C(C)=C[C@@H]23)[C@@H]2C(C)(C)[C@]12O
IC50 [7]: 100 nM | IC50 [8]: 100 nM | IC50 [9]: 100 nM | IC50 [10]: 100 nM

C/C(=C/C(=O)c1cccnc1)Nc1ccc(O)cc1
IC50 [11]: 4200 nM | CC50 [12]: > 100000 nM | IC50 [13]: 2180 nM | IC50 [14]: 8400 nM

c1ccc(CN(CCN(Cc2ccccn2)Cc2ccccn2)Cc2ccccn2)nc1
inhibition (HEK293T): Active

COc1ccc(C(=O)Oc2cc(OC)c(OC)c(OC)c2)cc1NC(=O)C(C)Br (stereo not drawn)
IC50 [6]: 17 nM

COc1cc(-c2ccc(Nc3ccccc3C(=O)O)c(OC)c2)ccc1Nc1ccccc1C(=O)O
CC50 [12]: > 100000 nM | IC50 [14]: 1370 nM

CC(C)(C)OC(=O)NCCCC[C@@H](NC(=O)OCc1ccccc1)C(=O)Oc1ccc([N+](=O)[O-])cc1
IC50 [15]: 8160 nM

CCCCn1c(SCc2c(C)noc2C)nc2cc(S(N)(=O)=O)ccc21
IC50 [16]: 30000 nM

Cc1noc(C)c1CSc1nc2ccccc2n1-c1ccccc1
IC50 [16]: 30000 nM

Fc1ccc(OCC(Cn2ccnc2)c2ccc(Cl)cc2Cl)cc1 (stereo not drawn)
fold change (FC) [17]: 1.7 | IC50 [18]: 8630 nM
